Test results as given in patent US7759542B2, “Glycine N-methyltransferase (GNMT) animal model and use thereof” (priority 2007, dated 2010).
Values joined by “and” are separate entries in the source; they are usually repeats but may differ in a detail not shown here. Equal values may be shown once. “Also recorded” adds a separate entry of the source. Read-outs that look alike come from different tables or passages of the source.

Key:
wild-type mice [1] = details: mouse, in vivo
GNMT = assay type: cell-based
GNMT-TG mice = details: mouse, in vivo
HuH-7 cells = experiment: MTT cytotoxicity assay of AFB1 on HuH-7 cells; assay type: cell-based
Description: MTT assay was used to determine the cytotoxicity effect of AFB1. In brief, cells were seeded on 96 well plate. At the time of assay, culture medium was replaced by 100 μL fresh medium containing 10 μL of 5 mg/mL MTT stock solution for each well. After 4 hr of labeling cells with MTT, medium was removed then 100 μL DMSO was added to each well for 10 min at 37° C. Samples were mixed and read absorbance at 540 nm. For half lethal concentration (LC50) determination, seven thousand HuH-7 cells were seeded on 96 well plate for 18 hr. Cells were treated with different concentration of AFB1 and MTT assay was performed at series time points, triplicate for each set. The survival percentage is calculated by dividing the OD value of treatment group by solvent control group. For cytotoxicity assay, five thousand HuH-7 cells were infected with different amount of adenovirus or lentivirus carrying GNMT cDNA for 8 hr then refreshed medium for another 10 hr. After 72 hr of AFB1 treatment, MTT assay was performed to determine the survival percentage.
MTT assay was used to determine the percentage of survived cells. To optimize the condition of cytotoxicity assay, HuH-7 cells were treated with different concentrations of AFB1 for series time course. […] The cytotoxicity effect of treatment up to 16 μM AFB1 was obscure within 24 hr. […]

Gnmt−/− mice = details: mouse, in vivo
wild-type mice [2] = details: mouse, in vivo; remark: listed apart in the source

aflatoxin B1 [AFB1] was tested. Which “Pathological examination of liver” value (wild-type mice [1]) did it give?
The value was “dysplasia and HCC”.

What about the ALT (wild-type mice [1]; ip) of the same substance?
Its ALT is 134 ± 112 and 109 ± 97.

And the liver/body weight % (wild-type mice [1]; ip)?
The liver/body weight % was 4.7 ± 0.3% and 4.0 ± 0.7%.

And the “GNMT distribution following AFB1 treatment” value (GNMT)?
The value was “partly translocated to cell nuclei”.

What about the “Pathological examination of liver” value (GNMT-TG mice) of the same substance?
Its value is “normal pattern”.

And the ALT (GNMT-TG mice; ip)?
The ALT was 61 ± 37 and 100 ± 73.

And the liver/body weight % (GNMT-TG mice; ip)?
Its liver/body weight % is 4.5 ± 0.9% and 3.7 ± 0.4%.

And the cytotoxicity effect (HuH-7 cells)?
The cytotoxicity effect was “obscure”.

And the “HE staining of histological liver sections” value (Gnmt−/− mice)?
Its value is “Dysplastic nodule, early HCC and fatty nodules; also recorded: Sclenosing HCC, Dysplastic nodule with focal fatty change”.

What about the “Nodules <0.5 cm” value (Gnmt−/− mice; ip) of the same substance?
The value was 3 and 6.

And the “Nodules >0.5 cm” value (Gnmt−/− mice; ip)?
The value was 4 and 5.

And the “HE staining of histological liver sections” value (wild-type mice [2])?
Its value is “no abnormalities”.

And the ALT (wild-type mice [2]; ip)?
The ALT was 27.5 ± 0.71 U/L and 22.83 ± 3.92 U/L.

What about the AST (wild-type mice [2]; ip) of the same substance?
The AST was 72.00 ± 58.92 U/L and 42.50 ± 8.22 U/L.

And the “Nodules <0.5 cm” value (wild-type mice [2]; ip)?
The value was 0.

And the “Nodules >0.5 cm” value (wild-type mice [2]; ip)?
The value was 0.
